Patent US7977304B2, “FK 228 derivates as HDAC inhibitors” (University of Southampton Highfield, priority 2005, dated 2011)

System: TNFα production from peripheral blood mononuclear cells (PBMCs)
Assay: Activity Assay 7: LPS-induced TNFα secretion from PBMCs (QUANTIKINE immunoassay)
Type: cell-based
Settings: Homo sapiens, PBMC; Concentration 200 nM
Protocol: We analysed the ability of compounds to inhibit the production of TNFα from peripheral blood mononuclear cells (PBMCs). TNF-α immunoassays were carried out using the QUANTIKINE® Human TNF-α assay kit (R&D systems, Abingdon UK) according to the manufacturer's instructions. […] Compounds were added 1 hour later in volumes of 100 μl at 6× final concentration. Five hours later lipopolysaccharide (LSP, Sigma, Poole, UK) was added in a volume of 10 μl at 60× final concentration. Plates were mixed and left overnight at 37° C. 5% C02. Plates were centrifuged and cell supernatant was transferred to a new plate. The QUANTIKINE® assay reagents and standards were prepared according to the manufacturer instructions. The QUANTIKINE® assay plate was prepared by adding 50 μl of assay diluent RD1F into each well. This was followed by 200 μl of standard or 100 μl of calibrator diluent plus 100 μl cell supernatant; this was incubated for 2 hours at room temperature (RT). The plate was washed using wash buffer 4 times. After the final wash the plate was tapped on clean paper towel to remove all residual buffer. 200 μl of TNF-α conjugate was added to each well and incubated for 1 hour at RT. The plate was then washed as before. The required amount of substrate solution was prepared by adding equal volumes of colour reagents A and B, protecting from light, 200 μl of this mix was added to each well and incubated for 20 mins at RT, protected from light. 50 μl of stop solution was added to each well in the same order as the substrate solution and the plate was read on a Biorad 680 96 well plate reader (Bio-Rad, Hemel Hempstead, UK) at 450 nm with λ correction at 570 nm. TNF-α levels were determined for mean values of duplicate samples using absorbance in nm, calibration zero values were subtracted from all results to correct for the addition of calibrator diluent in the assay.

CC(C)[C@H]1NC(=O)[C@H]2CSSCC/C=C/[C@H](CC(=O)N[C@H](C)C(=O)N2)OC(=O)CNC1=O [Compound 9A, (E)-(1S,7R,10S,21R)-7-isopropyl-21-methyl-2-oxa-12,13-dithia-5,8,20,23-tetraaza-bicyclo[8.7.6]tricos-16-ene-3,6,9,19,22-pentaone]
inhibition at 0.2 µM: 69%
